What was measured:
Format in all cases: biochemical
tPA = tPA (Homo sapiens, UniProt P00750); experiment: Chromogenic substrate assay, Ki determination, tPA
Method: (§1) The inhibitor (I) constants (Ki) were determined for the inhibition of a series of human enzymes (FXa, thrombin, trypsin, plasmin, protein Ca, streptokinase, tPA, and urokinase) by each compound. Chromogenic substrate assays were performed using a Labsystems IEMS (Cergy Pontoise, France) microtiter plate reader. In each assay, the compound was tested at a minimum of seven concentrations in duplicate to obtain an inhibition curve. Assays were performed according to the following general procedure. In a 96-well microtiter plate, 25 μL of compound, inhibitor solution or buffer was added to 50 μL of substrate. A volume of 25 μL of enzyme solution was added just before the plate was placed in the microtiter plate reader for 1 h at 37 °C. The hydrolysis of the substrate yields p-nitroaniline, which was continuously monitored spectrophotometrically at 405 nm. Data were collected and the initial rate of substrate hydrolysis [Vo (mOD/minute)] was calculated. Following Michaelis-Menten kinetics, the affinity of the enzyme for the substrate, in the absence of the inhibitor (Km) and in the presence of an inhibitor (Kp), was determined to be the negative inverse x-intercept of Lineweaver–Burk plots. The dissociation constant for inhibition (Ki) was calculated using the following equation: Ki = (Km·[I])/(Kp − Km) as described by Williams and Morrison[40].

Plasmin = Plasmin (Homo sapiens, UniProt P00747); experiment: Chromogenic substrate assay, Ki determination, Plasmin
Method: as §1

Protein Ca = Protein Ca (Homo sapiens, UniProt P04070); experiment: Chromogenic substrate assay, Ki determination, Protein Ca
Method: as §1

FXa = target: T1, FXa (Homo sapiens, UniProt P00742); experiment: Inhibition of amidolytic activity of FXa toward S-2222 (Michaelis-Menten, Lineweaver-Burk; with or without TFPI); settings: for slope of inhibition activity plot: FXa
T1 construct: purchased Haematologic Technologies (Essex Junction, VT, USA)
Method: To elucidate the mechanisms responsible for inhibition of coagulation and platelet aggregation by compounds 1–4, inhibition of FXa activity was determined using chromogenic substrates. […] We observed a decrease in Vmax, with no effect on the Km of FXa toward S-2222 in the presence of compound 1. […] We also observed a slope of 0.401 for the control without compound 2, and slopes of 0.442 and 0.465 for compound 2 at concentrations of 2 and 5 µM, respectively. […] We observed a decrease in Vmax, with no effect on the Km of FXa toward S-2222 in the presence of compound 2. […] Inhibition activity plots were obtained for different concentrations of compound 3, showing a slope of 0.388 for the control without compound 3, and slopes of 0.408 and 0.464 for compound 3 at concentrations of 2 and 5 µM, respectively. […] We also observed a slope of 0.363 for the control without compound 4, and slopes of 0.376 and 0.398 for compound 4 at concentrations of 2 and 5 µM, respectively. […] We observed a decrease in Vmax, with no effect on the Km of FXa toward S-2222 in the presence of compound 4.
Figure 6 Effects of compounds 1–4 on inhibition and production of FXa. […] The plots represent means of three independent measurements. (E) Human umbilical vein endothelial cells (HUVECs) were pre-incubated with the indicated concentration of each compound for 10 min. HUVECs stimulated with tumor necrosis factor-α (TNF-α, 10 ng/mL for 6 h) were incubated with FVIIa (10 nM) and FX (175 nM) in the absence or presence of anti-TF IgG (25 µg/mL). FXa production was determined as described in the “ Supplementary Materials and Methods” section. D = 0.2% DMSO used as the vehicle control. (F) Inhibition of FXa by each compound (5 μM) with or without TFPI (2 nM) was monitored using a chromogenic assay. ^* p < 0.05 vs. TNF-α alone (E) or each compound (F) alone, analyzed via one-way ANOVA, followed by Tukey multiple comparison testing.
Each compound with or without TFPI was dissolved in 50 mM Tris-HCl buffer (pH 7.4) containing 7.5 mM EDTA and 150 mM NaCl. Following a 2-min incubation at 37 °C, FXa solution (150 μL, 1 U/mL) was added, followed by incubation at 37 °C for 1 min. S-2222 (an FXa substrate, 150 μL, 1.5 mM) solution was subsequently added, and the absorbance at 405 nm was monitored for 20 min using a spectrophotometer (TECAN, Männedorf, Switzerland). The absorbance-time curve and the slope of the curve (Vi) were used to represent the activity of the enzyme. Distilled water served as a control (the slope of curve V0). The inhibitory effect was calculated according to equation (1):1 Inhibitoryrate(%)=(V0−Vi)/V0×100 where V0 represents the slope of the vehicle and Vi represents the slope of the samples.

α-Thrombin = target: T2, α-Thrombin (Homo sapiens, UniProt P00734); experiment: Chromogenic substrate assay, Ki determination, α-Thrombin
T2 construct: FXa converts prothrombin to thrombin; purchased Haematologic Technologies (Essex Junction, VT, USA)
Method: as §1

T1 sequence (P00742 235-488 limits assumed): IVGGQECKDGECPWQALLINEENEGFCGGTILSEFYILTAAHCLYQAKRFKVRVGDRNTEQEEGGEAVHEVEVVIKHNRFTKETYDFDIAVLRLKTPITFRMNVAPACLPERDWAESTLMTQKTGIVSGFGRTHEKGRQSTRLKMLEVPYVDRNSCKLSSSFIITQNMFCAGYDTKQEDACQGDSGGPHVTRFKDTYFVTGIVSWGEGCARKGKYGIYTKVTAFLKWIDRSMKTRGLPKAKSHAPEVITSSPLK
T1 sequence (P00742 41-179 limits assumed): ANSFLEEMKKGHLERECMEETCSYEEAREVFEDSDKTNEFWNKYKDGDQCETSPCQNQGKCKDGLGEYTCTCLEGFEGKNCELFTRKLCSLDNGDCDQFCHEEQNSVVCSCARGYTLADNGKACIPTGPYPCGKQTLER
Sequence of Plasmin (P00747 581-810 limits assumed): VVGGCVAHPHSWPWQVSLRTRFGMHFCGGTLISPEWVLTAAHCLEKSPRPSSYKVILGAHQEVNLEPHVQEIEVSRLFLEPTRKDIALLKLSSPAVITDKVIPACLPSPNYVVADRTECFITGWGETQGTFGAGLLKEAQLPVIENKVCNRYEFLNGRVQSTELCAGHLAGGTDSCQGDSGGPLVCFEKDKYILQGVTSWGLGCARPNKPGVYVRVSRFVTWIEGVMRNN
Sequence of Plasmin (P00747 97-580 limits assumed): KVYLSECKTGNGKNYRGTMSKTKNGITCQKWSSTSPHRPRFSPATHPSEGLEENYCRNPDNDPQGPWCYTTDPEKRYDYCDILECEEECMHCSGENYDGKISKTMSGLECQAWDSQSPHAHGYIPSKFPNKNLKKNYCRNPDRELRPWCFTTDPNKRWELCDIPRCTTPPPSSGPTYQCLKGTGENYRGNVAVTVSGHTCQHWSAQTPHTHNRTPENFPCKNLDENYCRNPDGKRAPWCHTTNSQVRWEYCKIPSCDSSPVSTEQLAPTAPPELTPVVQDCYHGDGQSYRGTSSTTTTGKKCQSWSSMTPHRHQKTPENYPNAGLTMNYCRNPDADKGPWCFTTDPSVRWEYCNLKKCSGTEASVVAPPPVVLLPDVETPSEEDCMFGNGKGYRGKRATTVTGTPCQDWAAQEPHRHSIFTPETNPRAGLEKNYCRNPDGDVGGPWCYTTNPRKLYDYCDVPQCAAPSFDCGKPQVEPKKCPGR
Sequence of tPA (P00750 36-562): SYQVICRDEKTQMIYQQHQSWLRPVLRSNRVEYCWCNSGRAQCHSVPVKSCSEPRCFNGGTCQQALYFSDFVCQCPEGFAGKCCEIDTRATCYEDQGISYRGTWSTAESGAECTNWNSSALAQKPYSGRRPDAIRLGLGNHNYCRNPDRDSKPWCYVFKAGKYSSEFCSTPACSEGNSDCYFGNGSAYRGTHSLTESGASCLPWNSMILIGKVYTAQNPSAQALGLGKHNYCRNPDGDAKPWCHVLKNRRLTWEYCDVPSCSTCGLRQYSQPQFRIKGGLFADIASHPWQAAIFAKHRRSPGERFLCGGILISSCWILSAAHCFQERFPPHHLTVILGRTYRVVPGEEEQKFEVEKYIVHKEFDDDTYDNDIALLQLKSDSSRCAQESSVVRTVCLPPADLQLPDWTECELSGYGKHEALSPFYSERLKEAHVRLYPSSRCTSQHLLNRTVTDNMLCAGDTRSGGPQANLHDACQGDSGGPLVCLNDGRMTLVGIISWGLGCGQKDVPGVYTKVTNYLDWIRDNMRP
Sequence of Protein Ca (P04070 212-461 limits assumed): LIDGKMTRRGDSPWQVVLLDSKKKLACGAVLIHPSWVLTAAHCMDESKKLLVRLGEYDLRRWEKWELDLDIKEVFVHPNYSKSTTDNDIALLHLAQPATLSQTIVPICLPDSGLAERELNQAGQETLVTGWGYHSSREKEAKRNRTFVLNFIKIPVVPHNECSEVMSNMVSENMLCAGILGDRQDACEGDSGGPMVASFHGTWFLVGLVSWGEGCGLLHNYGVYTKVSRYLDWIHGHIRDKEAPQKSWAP
Sequence of Protein Ca (P04070 43-197 limits assumed): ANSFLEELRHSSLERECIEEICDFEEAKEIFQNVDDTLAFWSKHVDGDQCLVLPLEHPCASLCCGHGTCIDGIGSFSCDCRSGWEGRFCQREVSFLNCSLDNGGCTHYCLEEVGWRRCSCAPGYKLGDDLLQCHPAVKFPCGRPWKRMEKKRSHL

Structure (SMILES): CC(=O)NCCc1ccc2c(c1)O[C@H](c1ccc(O)c(O)c1)[C@H](NC(C)=O)O2 [Compound 1, (2 R,3 R)-2-(3′,4′-dihydroxyphenyl)-3-acetylamino-7-(N-acetyl-2″-aminoethyl)-1,4-benzodioxane]
- Ratio = Ki enzyme/Ki Factor Xa, tPA (tPA): >100
- Ki (tPA; substrate S-2228): > 300 µM
- Ratio = Ki enzyme/Ki Factor Xa, Plasmin (Plasmin): >100
- Ki (Plasmin; substrate S-2251): > 300 µM
- Ratio = Ki enzyme/Ki Factor Xa, Protein Ca (Protein Ca): >100
- Ki (Protein Ca; substrate S-2366): > 300 µM
- Km of FXa toward S-2222 in the presence of compound (FXa): no effect
- Vmax of FXa toward S-2222 in the presence of compound (FXa): decrease
- type of inhibition of FXa (Lineweaver-Burk plots) (FXa; S-2222): noncompetitive inhibition
- slope of inhibition activity plot (FXa; compound at 2 µM, S-2222): 0.707
- slope of inhibition activity plot (FXa; compound at 5 µM, S-2222): 0.957
- Ki (FXa; substrate S-2222): 2.96 µM
- Ratio = Ki enzyme/Ki Factor Xa, α-Thrombin (α-Thrombin): >100
- Ki (α-Thrombin; substrate S-2238): > 300 µM
